According to PMC6269682, “Apocynin: Chemical and Biophysical Properties of a NADPH Oxidase Inhibitor” (Molecules, 2013):

Columns and labels:
[1] = target: T1, human serum albumin (HSA) (Homo sapiens, UniProt P02768); experiment: intrinsic fluorescence quenching (Stern-Volmer, apparent Ka), with displacement of fluorescent site probes; assay type: binding
T1 construct: gene ALB

[2] = target: T1, human serum albumin (HSA); experiment: probe fluorescence enhancement and blue shift on binding; displaced by apocynin

T1 sequence (P02768 25-609): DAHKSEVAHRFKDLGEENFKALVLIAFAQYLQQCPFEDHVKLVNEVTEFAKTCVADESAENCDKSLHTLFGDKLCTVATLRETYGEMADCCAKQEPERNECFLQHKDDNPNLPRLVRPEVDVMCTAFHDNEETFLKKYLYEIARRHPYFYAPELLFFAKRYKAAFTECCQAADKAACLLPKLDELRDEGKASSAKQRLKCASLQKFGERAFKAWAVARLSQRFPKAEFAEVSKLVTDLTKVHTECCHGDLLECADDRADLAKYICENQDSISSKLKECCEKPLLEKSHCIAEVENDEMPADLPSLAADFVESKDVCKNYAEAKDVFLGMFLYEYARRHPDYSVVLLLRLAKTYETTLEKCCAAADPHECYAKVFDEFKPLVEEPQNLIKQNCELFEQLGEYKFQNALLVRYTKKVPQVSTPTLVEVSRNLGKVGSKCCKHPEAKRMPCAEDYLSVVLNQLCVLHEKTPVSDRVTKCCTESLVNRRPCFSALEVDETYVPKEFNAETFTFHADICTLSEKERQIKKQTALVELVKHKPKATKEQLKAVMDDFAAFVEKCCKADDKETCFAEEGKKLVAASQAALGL

Row | Kd [1] [µM] | Structure (SMILES) | probe fluorescence enhancement and blue shift on binding; displaced by apocynin [2]
1 | 45.7 | COc1cc(C(C)=O)ccc1O [APO, 4-hydroxy-3-methoxyacetophenone] | 
2 |  | CN(C)c1cccc2c(S(=O)(=O)NCC(=O)O)cccc12 [DG, dansylglycine] | apocynin was able to displace both fluorescent probes, but a greater effect was observed using DNSA
3 |  | CN(C)c1cccc2c(S(N)(=O)=O)cccc12 [DNSA, 5-(dimethylamino)-1-naphthalenesulfonamide] | binding of these probes to albumin provoked a significant increase in their fluorescence quantum yield
